Data on six molecules can be found in patent publication US20220220100A1 (SOLUTIA CANADA INC., priority 2019, published 2022).

Type in all cases: physicochemical
Data set [1] can be described thus: UV/Vis absorbance at 400 nm and Yellowness Index of the ring-open isomer. To be noted: for Abs @ 400 nm, RO (Absorption of ring-open isomer at 400 nm): 2×10^−5 M solution, 1 cm pathlength cuvette. In outline:
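Compound measured as a 2×10^−5 M solution in a 1 cm cuvette after photofading with visible light until visible absorption stabilized. Absorbance at 400 nm and Yellowness Index refer to this ring-open isomer.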

Data set [2] in a line: Solubility in Rhodiasolv IRIS solvent. Conditions: Rhodiasolv IRIS (dimethyl-2-methyl glutarate); wt %.
Data set [3] in a line: Oxidation potential of ring-closed and ring-open isomers. Conditions: no unit printed in table (V relative to Ag/AgCl).
Data set [4] is described as follows: Photostability: xenon arc weathering of chromophore solutions, LCMS analysis. Conditions: for Ketone (%) / Minus-2HF (%) / Minus-HF (%) / Sulfone (%) / Chromophore Remaining (%): xenon arc, 82° C. bp; for Ketone (%) / Minus-2HF (%) / Minus-HF (%) / Sulfone (%): linearly interpolated to 0.5 MJ/m2 @ 340 nm; for Chromophore Remaining (%): linearly interpolated to 0.5 MJ/m2 @ 340 nm of exposure energy; for Photostability (in words): weathering experiments. An outline of the steps: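 Chromophores were dissolved at 1 to 10 wt % in Rhodiasolv IRIS at 90° C, then sealed under glovebox conditions in glass cells laminated with 400 nm UV-cutoff PVB. The cells were weathered continuously in a xenon arc chamber with no dark or spray cycles. Solutions were then diluted in acetonitrile and analysed by reverse-phase LC-MS.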

[5] abbreviates: 10 wt %, interpolated to 0.5 MJ/m^2 of energy exposure at 340 nm.
The mark [6] stands for this setting: 3 wt %, interpolated to 0.5 MJ/m^2 of energy exposure at 340 nm.
The mark [7] stands for this setting: 1 wt %, interpolated to 0.5 MJ/m^2 of energy exposure at 340 nm.

Turning to `CCOC(=O)CCCOc1cc2oc(-c3ccc(C(C)(C)C)cc3)c(C3=C(c4cc(-c5cc6c(s5)C(C)(C)CCC6(C)C)sc4-c4cc5c(s4)C(C)(C)CCC5(C)C)C(F)(F)C(F)(F)C3(F)F)c2cc1OCCCC(=O)OCC` [Chromophore S387, ethyl 4-[(3-{2-[2,5-bis(4,4,7,7-tetramethyl-4,5,6,7-tetrahydro-1-benzothiophen-2-yl)thiophen-3-yl]-3,3,4,4,5,5-hexafluorocyclopent-1-en-1-yl}-2-(4-tert-butylphenyl)-6-(4-ethoxy-4-oxobutoxy)-1-benzofuran-5-yl)oxy]butanoate], in data set [1], the “YI (Yellowness Index)” value is 8.15 and the “Abs @ 400 nm, RO (Absorption of ring-open isomer at 400 nm)” value (from here on “Abs @ 400 nm, RO”) is 0.146. Moreover, the “Solubility in Rhodiasolv IRIS” value in data set [2] is on record as over 10%. For the same molecule, in data set [3], the “RC [O] (oxidation potential of ring-closed isomer)” value (shortened to “RC [O]”) is given as 0.92 and the “RO [O] (oxidation potential of ring-open isomer)” value (“RO [O]” for short) worked out at 1.29. Besides, in data set [4], the “Formation of the Minus-HF degradation product (in words)” value is recorded as “prevents the Minus-HF product” and the “Photostability (in words)” value is on record as “high photostability”. In data set [4] (10 wt % in Rhodiasolv IRIS), the “Ketone (%)” value is on record as 0.0%, the “Minus-2HF (%)” value was found to be 0.0%, the “Minus-HF (%)” value worked out at 0.0% and the “Sulfone (%)” value worked out at 0.0%. In addition, the “Chromophore Remaining (%)” value in data set [4] (10 wt % in Rhodiasolv IRIS) was determined as 100.0%. Moreover, the “Ratio of chromophore remaining relative to S340” value in data set [4] (setting [5]) was determined as 1.10.

In the case of `COCCCOc1cc2oc(-c3ccc(C(C)(C)C)cc3)c(C3=C(c4cc(-c5cc6c(s5)C(C)(C)CCC6(C)C)sc4-c4cc5c(s4)C(C)(C)CCC5(C)C)C(F)(F)C(F)(F)C3(F)F)c2cc1OCCCOC` [Chromophore S388, 3-(2-(2,5-bis(4,4,7,7-tetramethyl-4,5,6,7-tetrahydrobenzo[b]thiophen-2-yl)thiophen-3-yl)-3,3,4,4,5,5-hexafluorocyclopent-1-en-1-yl)-2-(4-(tert-butyl)phenyl)-5,6-bis(3-methoxypropoxy)benzofuran], in data set [1], the “YI (Yellowness Index)” value is on record as 6.3 and the “Abs @ 400 nm, RO” value came out at 0.132. Further, the “Solubility in Rhodiasolv IRIS” value in data set [2] is over 10%. For the same molecule, in data set [3], the “RC [O]” value is on record as 0.89 and the “RO [O]” value is 1.28. Further, in data set [4], the “Formation of the Minus-HF degradation product (in words)” value was “prevents the Minus-HF product” and the “Photostability (in words)” value is given as “high photostability”. Also, in data set [4] (10 wt % in Rhodiasolv IRIS), the “Ketone (%)” value came out at 0.2%, the “Minus-2HF (%)” value turned out to be 0.0%, the “Minus-HF (%)” value was found to be 0.0% and the “Sulfone (%)” value came to 0.4%. In data set [4] (10 wt % in Rhodiasolv IRIS), the “Chromophore Remaining (%)” value is 97.7%. In addition, the “Ratio of chromophore remaining relative to S340” value in data set [4] (setting [5]) is 1.07.

Take `CC(C)(C)c1ccc(-c2oc3cc(OCCN4CCOC4=O)c(OCCN4CCOC4=O)cc3c2C2=C(c3cc(-c4cc5c(s4)C(C)(C)CCC5(C)C)sc3-c3cc4c(s3)C(C)(C)CCC4(C)C)C(F)(F)C(F)(F)C2(F)F)cc1` [Chromophore S390, 3,3′-(((3-(2-(2,5-bis(4,4,7,7-tetramethyl-4,5,6,7-tetrahydrobenzo[b]thiophen-2-yl)thiophen-3-yl)-3,3,4,4,5,5-hexafluorocyclopent-1-en-1-yl)-2-(4-(tert-butyl)phenyl)benzofuran-5,6-diyl)bis(oxy))bis(ethane-2,1-diyl))bis(oxazolidin-2-one)]: in data set [1], the “YI (Yellowness Index)” value was 6.48 and the “Abs @ 400 nm, RO” value is 0.133. In data set [2], the “Solubility in Rhodiasolv IRIS” value is listed as over 10%. In data set [3], the “RC [O]” value is 0.93 and the “RO [O]” value is reported as 1.29. Besides, in data set [4] (10 wt % in Rhodiasolv IRIS), the “Ketone (%)” value turned out to be 0.0%, the “Minus-2HF (%)” value was 0.0%, the “Minus-HF (%)” value was 0.0% and the “Sulfone (%)” value is 0.0%. The “Chromophore Remaining (%)” value in data set [4] (10 wt % in Rhodiasolv IRIS) was 98.8%. The “Ratio of chromophore remaining relative to S340” value in data set [4] (setting [5]) came to 1.08. Moreover, the “Photostability (in words)” value in data set [4] is on record as “high photostability”.

As to `CC(=O)Oc1cc2oc(-c3ccc(C(C)(C)C)cc3)c(C3=C(c4cc(-c5cc(C(C)(C)C)cs5)sc4-c4cc(C(C)(C)C)cs4)C(F)(F)C(F)(F)C3(F)F)c2cc1OC(C)=O` [Chromophore S396, 2-(4-(tert-butyl)phenyl)-3-(2-(4,4″-di-tert-butyl-[2,2′:5′,2″-terthiophen]-3′-yl)-3,3,4,4,5,5-hexafluorocyclopent-1-en-1-yl)benzofuran-5,6-diyl diacetate], in data set [1], the “YI (Yellowness Index)” value turned out to be 2.78 and the “Abs @ 400 nm, RO” value is on record as 0.08. Further, the “Solubility in Rhodiasolv IRIS” value in data set [2] is recorded as over 3%. In data set [3], the “RC [O]” value amounted to 1.18 and the “RO [O]” value came out at 1.48. In data set [4] (3 wt % in Rhodiasolv IRIS), the “Ketone (%)” value is 1.0%, the “Minus-2HF (%)” value is 0.0%, the “Minus-HF (%)” value was 0.0% and the “Sulfone (%)” value was found to be 0.0%. For the same molecule, in data set [4] (3 wt % in Rhodiasolv IRIS), the “Chromophore Remaining (%)” value was 97.9%. For the same molecule, in data set [4] (setting [6]), the “Ratio of chromophore remaining relative to S340” value worked out at 1.07. Moreover, in data set [4], the “Photostability (in words)” value is on record as “high photostability”.

Consider `COc1ccc2oc(-c3ccc(C(C)(C)C)cc3)c(C3=C(c4cc(-c5cc6c(s5)C(C)(C)CCC6(C)C)sc4-c4cc5c(s4)C(C)(C)CCC5(C)C)C(F)(F)C(F)(F)C3(F)F)c2c1` [Chromophore S400], for which, in data set [1], the “YI (Yellowness Index)” value is on record as 6.67 and the “Abs @ 400 nm, RO” value amounted to 0.125. Moreover, the “Solubility in Rhodiasolv IRIS” value in data set [2] was over 3%. Besides, in data set [3], the “RC [O]” value is 1.01 and the “RO [O]” value is 1.29. Besides, in data set [4] (3 wt % in Rhodiasolv IRIS), the “Ketone (%)” value is 0.8%, the “Minus-2HF (%)” value was determined as 1.4%, the “Minus-HF (%)” value is recorded as 0.0% and the “Sulfone (%)” value turned out to be 0.0%. Besides, the “Chromophore Remaining (%)” value in data set [4] (3 wt % in Rhodiasolv IRIS) was determined as 96.7%. Also, the “Ratio of chromophore remaining relative to S340” value in data set [4] (setting [6]) was found to be 1.06. Besides, the “Photostability (in words)” value in data set [4] is reported as “high photostability”.

Turning to `COc1cc2oc(-c3ccc(C(C)(C)C)cc3)c(C3=C(c4cc(-c5cc6c(s5)C(C)(C)CCCC6(C)C)sc4-c4cc5c(s4)C(C)(C)CCCC5(C)C)C(F)(F)C(F)(F)C3(F)F)c2cc1OC` [Chromophore S405], in data set [1], the “YI (Yellowness Index)” value was 7.26 and the “Abs @ 400 nm, RO” value is 0.143. For the same molecule, the “Solubility in Rhodiasolv IRIS” value in data set [2] is over 1%. Moreover, in data set [3], the “RC [O]” value is reported as 0.91 and the “RO [O]” value amounted to 1.28. Besides, in data set [4] (1 wt % in Rhodiasolv IRIS), the “Ketone (%)” value is listed as 2.9%, the “Minus-2HF (%)” value is 0.0%, the “Minus-HF (%)” value worked out at 0.0% and the “Sulfone (%)” value came to 0.0%. In addition, the “Chromophore Remaining (%)” value in data set [4] (1 wt % in Rhodiasolv IRIS) worked out at 97.1%. In data set [4] (setting [7]), the “Ratio of chromophore remaining relative to S340” value turned out to be 1.07 and the “Sum of degradation product percentages relative to the sum of degradation product percentages for S340” value stood at 0.33. Further, the “Photostability (in words)” value in data set [4] was “high photostability”.
